SMILES strings stand for the structures.
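Also: spheroids exposed to compounds for one week before readout; percent viability relative to DMSO vehicle wells taken as 100%.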

For the first assay, the system named is 317291-083-R-J1-PDC complex spheroids, viability. As to the kind of experiment: Anticancer human tumor 317291-083-R-J1-PDC patient-derived soft tissue sarcoma cell line growth inhibition [GQUAD]. As to conditions: second compound 0.0316 µM; first compound 3.16 µM; hits give low values. The method, boiled down: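 Viability of tumor cells grown as complex spheroids with endothelial and stromal cells, exposed to drug combinations. Top concentration at or near clinical Cmax (else 10 microM), diluted in half-log increments.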
Broadly, the viability, T/C is the result in the treated group divided by that in the control group, in per cent. Take `O=C(c1cc(Cc2n[nH]c(=O)c3ccccc23)ccc1F)N1CCN(C(=O)C2CC2)CC1` + CN(C)c1ccc(Nc2c3ccc(NC(=O)CCN4CCCC4)cc3nc3cc(NC(=O)CCN4CCCC4)ccc23)cc1: the viability, T/C is 84.9%.
Same read-out and setting: then `COc1ccc([C@@H](O)c2cc(-c3ncnc4cc(N5CCOCC5)ccc34)c(F)cc2Cl)nn1` + Cc1[nH]c2ccc(F)cc2c1-c1nc2c3cccnc3c3ncccc3c2[nH]1, with 72.2%.

The same assay, now with this note: second compound 0.0316 µM; first compound 10 µM; hits give low values.
As to `CC(C)(O)C1CCC(Nc2ccc3ncc(-c4cccc(C(F)(F)F)c4)n3n2)CC1` (configuration not stated) + Cc1cnc(CNC(=O)c2c(=O)c3ccc(N4CCCN(C)CC4)nc3n3c2sc2ccccc23)cn1, the viability, T/C was 0.45%.
Same read-out and setting: then `C=CC(=O)N1CCN(c2nc(=O)n(-c3c(C)ccnc3C(C)C)c3nc(-c4c(O)cccc4F)c(F)cc23)C(C)C1` (configuration not stated) + Cc1[nH]c2ccc(F)cc2c1-c1nc2c3cccnc3c3ncccc3c2[nH]1, with 60.8%.
Consider `O=C(c1cc(Cc2n[nH]c(=O)c3ccccc23)ccc1F)N1CCN(C(=O)C2CC2)CC1` + CN(C)c1ccc(Nc2c3ccc(NC(=O)CCN4CCCC4)cc3nc3cc(NC(=O)CCN4CCCC4)ccc23)cc1, for which the viability, T/C was 44.1%.
Consider `COc1ccc([C@@H](O)c2cc(-c3ncnc4cc(N5CCOCC5)ccc34)c(F)cc2Cl)nn1` + Cc1[nH]c2ccc(F)cc2c1-c1nc2c3cccnc3c3ncccc3c2[nH]1, for which the viability, T/C was 46.3%.

Staying with this assay, now noted: second compound 0.1 µM; first compound 0.0316 µM; hits give low values.
For `CC(C)(O)C1CCC(Nc2ccc3ncc(-c4cccc(C(F)(F)F)c4)n3n2)CC1` (configuration not stated) + Cc1cnc(CNC(=O)c2c(=O)c3ccc(N4CCCN(C)CC4)nc3n3c2sc2ccccc23)cn1, the viability, T/C was 58.2%.
The same measure, in the same setting: for `C=CC(=O)N1CCN(c2nc(=O)n(-c3c(C)ccnc3C(C)C)c3nc(-c4c(O)cccc4F)c(F)cc23)C(C)C1` (configuration not stated) + Cc1[nH]c2ccc(F)cc2c1-c1nc2c3cccnc3c3ncccc3c2[nH]1 the value was 110%; for `O=C(c1cc(Cc2n[nH]c(=O)c3ccccc23)ccc1F)N1CCN(C(=O)C2CC2)CC1` + CN(C)c1ccc(Nc2c3ccc(NC(=O)CCN4CCCC4)cc3nc3cc(NC(=O)CCN4CCCC4)ccc23)cc1, 111%; for `COc1ccc([C@@H](O)c2cc(-c3ncnc4cc(N5CCOCC5)ccc34)c(F)cc2Cl)nn1` + Cc1[nH]c2ccc(F)cc2c1-c1nc2c3cccnc3c3ncccc3c2[nH]1, 102%.

Staying with this assay, now noted: second compound 0.1 µM; first compound 0.1 µM; hits give low values.
`CC(C)(O)C1CCC(Nc2ccc3ncc(-c4cccc(C(F)(F)F)c4)n3n2)CC1` (configuration not stated) + Cc1cnc(CNC(=O)c2c(=O)c3ccc(N4CCCN(C)CC4)nc3n3c2sc2ccccc23)cn1: the viability, T/C is 60%.
Same read-out and setting: for `C=CC(=O)N1CCN(c2nc(=O)n(-c3c(C)ccnc3C(C)C)c3nc(-c4c(O)cccc4F)c(F)cc23)C(C)C1` (configuration not stated) + Cc1[nH]c2ccc(F)cc2c1-c1nc2c3cccnc3c3ncccc3c2[nH]1 the value was 97.4%.
On the same count and under the same terms, for `O=C(c1cc(Cc2n[nH]c(=O)c3ccccc23)ccc1F)N1CCN(C(=O)C2CC2)CC1` + CN(C)c1ccc(Nc2c3ccc(NC(=O)CCN4CCCC4)cc3nc3cc(NC(=O)CCN4CCCC4)ccc23)cc1 the value was 93.4%; for `COc1ccc([C@@H](O)c2cc(-c3ncnc4cc(N5CCOCC5)ccc34)c(F)cc2Cl)nn1` + Cc1[nH]c2ccc(F)cc2c1-c1nc2c3cccnc3c3ncccc3c2[nH]1, 101%.

Staying with this assay, now noted: second compound 0.1 µM; first compound 0.316 µM; hits give low values.
Take `CC(C)(O)C1CCC(Nc2ccc3ncc(-c4cccc(C(F)(F)F)c4)n3n2)CC1` (configuration not stated) + Cc1cnc(CNC(=O)c2c(=O)c3ccc(N4CCCN(C)CC4)nc3n3c2sc2ccccc23)cn1: the viability, T/C was 49.1%.
For `C=CC(=O)N1CCN(c2nc(=O)n(-c3c(C)ccnc3C(C)C)c3nc(-c4c(O)cccc4F)c(F)cc23)C(C)C1` (configuration not stated) + Cc1[nH]c2ccc(F)cc2c1-c1nc2c3cccnc3c3ncccc3c2[nH]1, the viability, T/C is 104%.
Still for that read-out and setting: then `O=C(c1cc(Cc2n[nH]c(=O)c3ccccc23)ccc1F)N1CCN(C(=O)C2CC2)CC1` + CN(C)c1ccc(Nc2c3ccc(NC(=O)CCN4CCCC4)cc3nc3cc(NC(=O)CCN4CCCC4)ccc23)cc1, with 101%; and `COc1ccc([C@@H](O)c2cc(-c3ncnc4cc(N5CCOCC5)ccc34)c(F)cc2Cl)nn1` + Cc1[nH]c2ccc(F)cc2c1-c1nc2c3cccnc3c3ncccc3c2[nH]1, with 86.8%.

The assay is the same for the next values; noted with them: second compound 0.1 µM; first compound 1 µM; hits give low values.
Regarding `CC(C)(O)C1CCC(Nc2ccc3ncc(-c4cccc(C(F)(F)F)c4)n3n2)CC1` (configuration not stated) + Cc1cnc(CNC(=O)c2c(=O)c3ccc(N4CCCN(C)CC4)nc3n3c2sc2ccccc23)cn1, the viability, T/C is 28%.
Consider `C=CC(=O)N1CCN(c2nc(=O)n(-c3c(C)ccnc3C(C)C)c3nc(-c4c(O)cccc4F)c(F)cc23)C(C)C1` (configuration not stated) + Cc1[nH]c2ccc(F)cc2c1-c1nc2c3cccnc3c3ncccc3c2[nH]1, for which the viability, T/C is 116%.
Still for that read-out and setting: for `O=C(c1cc(Cc2n[nH]c(=O)c3ccccc23)ccc1F)N1CCN(C(=O)C2CC2)CC1` + CN(C)c1ccc(Nc2c3ccc(NC(=O)CCN4CCCC4)cc3nc3cc(NC(=O)CCN4CCCC4)ccc23)cc1 the value was 96.7%.
Regarding `COc1ccc([C@@H](O)c2cc(-c3ncnc4cc(N5CCOCC5)ccc34)c(F)cc2Cl)nn1` + Cc1[nH]c2ccc(F)cc2c1-c1nc2c3cccnc3c3ncccc3c2[nH]1, the viability, T/C was 73.7%.

Staying with this assay, now noted: second compound 0.1 µM; first compound 3.16 µM; hits give low values.
Turning to `CC(C)(O)C1CCC(Nc2ccc3ncc(-c4cccc(C(F)(F)F)c4)n3n2)CC1` (configuration not stated) + Cc1cnc(CNC(=O)c2c(=O)c3ccc(N4CCCN(C)CC4)nc3n3c2sc2ccccc23)cn1, the viability, T/C was 0.24%.
Same read-out and setting: for `C=CC(=O)N1CCN(c2nc(=O)n(-c3c(C)ccnc3C(C)C)c3nc(-c4c(O)cccc4F)c(F)cc23)C(C)C1` (configuration not stated) + Cc1[nH]c2ccc(F)cc2c1-c1nc2c3cccnc3c3ncccc3c2[nH]1 the value was 93.4%.
Still for that read-out and setting: then `O=C(c1cc(Cc2n[nH]c(=O)c3ccccc23)ccc1F)N1CCN(C(=O)C2CC2)CC1` + CN(C)c1ccc(Nc2c3ccc(NC(=O)CCN4CCCC4)cc3nc3cc(NC(=O)CCN4CCCC4)ccc23)cc1, with 76.3%; and `COc1ccc([C@@H](O)c2cc(-c3ncnc4cc(N5CCOCC5)ccc34)c(F)cc2Cl)nn1` + Cc1[nH]c2ccc(F)cc2c1-c1nc2c3cccnc3c3ncccc3c2[nH]1, with 69.9%.

The same assay, now with this note: second compound 0.1 µM; first compound 10 µM; hits give low values.
As to `CC(C)(O)C1CCC(Nc2ccc3ncc(-c4cccc(C(F)(F)F)c4)n3n2)CC1` (configuration not stated) + Cc1cnc(CNC(=O)c2c(=O)c3ccc(N4CCCN(C)CC4)nc3n3c2sc2ccccc23)cn1, the viability, T/C was 1.34%.
Still for that read-out and setting: then `C=CC(=O)N1CCN(c2nc(=O)n(-c3c(C)ccnc3C(C)C)c3nc(-c4c(O)cccc4F)c(F)cc23)C(C)C1` (configuration not stated) + Cc1[nH]c2ccc(F)cc2c1-c1nc2c3cccnc3c3ncccc3c2[nH]1, with 71.8%; and `O=C(c1cc(Cc2n[nH]c(=O)c3ccccc23)ccc1F)N1CCN(C(=O)C2CC2)CC1` + CN(C)c1ccc(Nc2c3ccc(NC(=O)CCN4CCCC4)cc3nc3cc(NC(=O)CCN4CCCC4)ccc23)cc1, with 45.8%.
On the same count and under the same terms, for `COc1ccc([C@@H](O)c2cc(-c3ncnc4cc(N5CCOCC5)ccc34)c(F)cc2Cl)nn1` + Cc1[nH]c2ccc(F)cc2c1-c1nc2c3cccnc3c3ncccc3c2[nH]1 the value was 42.6%.

Still in this assay, the particulars now being: second compound 0.316 µM; first compound 0.0316 µM; hits give low values.
On to `CC(C)(O)C1CCC(Nc2ccc3ncc(-c4cccc(C(F)(F)F)c4)n3n2)CC1` (configuration not stated) + Cc1cnc(CNC(=O)c2c(=O)c3ccc(N4CCCN(C)CC4)nc3n3c2sc2ccccc23)cn1, for which the viability, T/C was 72.8%.
On the same count and under the same terms, then `C=CC(=O)N1CCN(c2nc(=O)n(-c3c(C)ccnc3C(C)C)c3nc(-c4c(O)cccc4F)c(F)cc23)C(C)C1` (configuration not stated) + Cc1[nH]c2ccc(F)cc2c1-c1nc2c3cccnc3c3ncccc3c2[nH]1, with 101%; and `O=C(c1cc(Cc2n[nH]c(=O)c3ccccc23)ccc1F)N1CCN(C(=O)C2CC2)CC1` + CN(C)c1ccc(Nc2c3ccc(NC(=O)CCN4CCCC4)cc3nc3cc(NC(=O)CCN4CCCC4)ccc23)cc1, with 84.4%.
Still for that read-out and setting: then `COc1ccc([C@@H](O)c2cc(-c3ncnc4cc(N5CCOCC5)ccc34)c(F)cc2Cl)nn1` + Cc1[nH]c2ccc(F)cc2c1-c1nc2c3cccnc3c3ncccc3c2[nH]1, with 99.5%.

The assay is the same for the next values; noted with them: second compound 0.316 µM; first compound 0.1 µM; hits give low values.
Consider `CC(C)(O)C1CCC(Nc2ccc3ncc(-c4cccc(C(F)(F)F)c4)n3n2)CC1` (configuration not stated) + Cc1cnc(CNC(=O)c2c(=O)c3ccc(N4CCCN(C)CC4)nc3n3c2sc2ccccc23)cn1, for which the viability, T/C was 37.8%.
On the same count and under the same terms, for `C=CC(=O)N1CCN(c2nc(=O)n(-c3c(C)ccnc3C(C)C)c3nc(-c4c(O)cccc4F)c(F)cc23)C(C)C1` (configuration not stated) + Cc1[nH]c2ccc(F)cc2c1-c1nc2c3cccnc3c3ncccc3c2[nH]1 the value was 113%; for `O=C(c1cc(Cc2n[nH]c(=O)c3ccccc23)ccc1F)N1CCN(C(=O)C2CC2)CC1` + CN(C)c1ccc(Nc2c3ccc(NC(=O)CCN4CCCC4)cc3nc3cc(NC(=O)CCN4CCCC4)ccc23)cc1, 83.3%.
On the same count and under the same terms, then `COc1ccc([C@@H](O)c2cc(-c3ncnc4cc(N5CCOCC5)ccc34)c(F)cc2Cl)nn1` + Cc1[nH]c2ccc(F)cc2c1-c1nc2c3cccnc3c3ncccc3c2[nH]1, with 95.4%.

Staying with this assay, now noted: second compound 0.316 µM; first compound 0.316 µM; hits give low values.
Take `CC(C)(O)C1CCC(Nc2ccc3ncc(-c4cccc(C(F)(F)F)c4)n3n2)CC1` (configuration not stated) + Cc1cnc(CNC(=O)c2c(=O)c3ccc(N4CCCN(C)CC4)nc3n3c2sc2ccccc23)cn1: the viability, T/C is 37.8%.
On to `C=CC(=O)N1CCN(c2nc(=O)n(-c3c(C)ccnc3C(C)C)c3nc(-c4c(O)cccc4F)c(F)cc23)C(C)C1` (configuration not stated) + Cc1[nH]c2ccc(F)cc2c1-c1nc2c3cccnc3c3ncccc3c2[nH]1, for which the viability, T/C is 105%.
Consider `O=C(c1cc(Cc2n[nH]c(=O)c3ccccc23)ccc1F)N1CCN(C(=O)C2CC2)CC1` + CN(C)c1ccc(Nc2c3ccc(NC(=O)CCN4CCCC4)cc3nc3cc(NC(=O)CCN4CCCC4)ccc23)cc1, for which the viability, T/C was 83.8%.
With `COc1ccc([C@@H](O)c2cc(-c3ncnc4cc(N5CCOCC5)ccc34)c(F)cc2Cl)nn1` + Cc1[nH]c2ccc(F)cc2c1-c1nc2c3cccnc3c3ncccc3c2[nH]1, the viability, T/C is 96.6%.
